According to ChEMBL document CHEMBL1201862, “PubChem BioAssay data set” (2004):
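48-hour exposure; five concentrations; linearly interpolated endpoints. GI50 = concentration required for 50% inhibition of growth.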 Active and inactive are the calls of the source. Rule as the data show it: active = GI50 up to about 1.1 µM and inactive = higher.

Legend:
Test in all cases: NCI anticancer screen, dose series, 48 h
CCRF-CEM = test system: CCRF-CEM
DU-145 = test system: DU-145
HCT-116 = test system: HCT-116
HCT-15 = test system: HCT-15
LOX IMVI = test system: LOX IMVI
M14 = test system: M14
MDA-MB-435 = test system: MDA-MB-435
MDA-N = test system: MDA-N
NCI-H460 = test system: NCI-H460
OVCAR-5 = test system: OVCAR-5
SF-295 = test system: SF-295
SK-MEL-5 = test system: SK-MEL-5
SN12C = test system: SN12C
SR = test system: SR
UACC-257 = test system: UACC-257
Malme-3M = test system: Malme-3M
OVCAR-4 = test system: OVCAR-4
SNB-75 = test system: SNB-75
U-251 = test system: U-251
A498 = test system: A498

SMILES	GI50 (CCRF-CEM)	GI50 (DU-145)	GI50 (HCT-116)	GI50 (HCT-15)	GI50 (LOX IMVI)	GI50 (M14)	GI50 (MDA-MB-435)	GI50 (MDA-N)	GI50 (NCI-H460)	GI50 (OVCAR-5)	GI50 (SF-295)	GI50 (SK-MEL-5)	GI50 (SN12C)	GI50 (SR)	GI50 (UACC-257)	GI50 (Malme-3M)	GI50 (OVCAR-4)	GI50 (SNB-75)	GI50 (U-251)	GI50 (A498)
COC(=O)NC1(NC(=O)OC)NC(=O)c2cc(OC)c(OC)cc2N1	5.21 µM (inactive)	48.6 µM (inactive)	29.8 µM (inactive)	13.2 µM	62.1 µM (inactive)	20.8 µM (inactive)	2.97 µM (inactive)	3.83 µM (inactive)	30.7 µM (inactive)	> 100 µM (inactive)	23.6 µM (inactive)	32.3 µM (inactive)	> 100 µM (inactive)	25.4 µM (inactive)	45 µM (inactive)					
Cc1ccc(S(=O)(=O)OC2CCN(C)CC2)cc1		> 100 µM (inactive)	46.6 µM (inactive)	> 100 µM	> 100 µM (inactive)	> 100 µM (inactive)	> 100 µM (inactive)	> 100 µM (inactive)	> 100 µM (inactive)	> 100 µM (inactive)	> 100 µM (inactive)	15.6 µM (inactive)	> 100 µM (inactive)	20.5 µM (inactive)	24.2 µM (inactive)	19 µM (inactive)	> 100 µM (inactive)	42.4 µM (inactive)	> 100 µM (inactive)	
CC(=O)O[C@H]1C(=O)[C@@]2(C)[C@H]([C@H](OC(=O)c3ccoc3)[C@]3(O)C[C@H](OC(=O)[C@H](O)[C@@H](NC(=O)c4ccccc4)c4ccccc4)C(C)=C1C3(C)C)[C@]1(OC(C)=O)CO[C@@H]1C[C@@H]2O	0.0566 µM (active)	0.352 µM (active)	0.0186 µM (active)	4.24 µM	0.032 µM (active)	0.129 µM (active)	0.00456 µM (active)		0.0524 µM (active)	0.0953 µM (active)	0.582 µM (active)	0.0467 µM (active)		0.026 µM (active)	0.538 µM (active)	0.0316 µM (active)	> 12.5 µM (inactive)	0.141 µM (active)	0.0811 µM (active)	0.811 µM (active)
O=C(C#Cc1ccccc1)C1=Cc2ccccc2OC1	0.198 µM (active)	5.53 µM (inactive)	1.92 µM (inactive)	2.37 µM	0.783 µM (active)	3.01 µM (inactive)	3.86 µM (inactive)		4.83 µM (inactive)	2.99 µM (inactive)	20.7 µM (inactive)	2.08 µM (inactive)	3.85 µM (inactive)	7.23 µM (inactive)	2.7 µM (inactive)	4.2 µM (inactive)	3.34 µM (inactive)	6.14 µM (inactive)	3.6 µM (inactive)	19.2 µM (inactive)
O=C1Nc2ccccc2[C@]12C[C@H]2c1ccccn1	> 100 µM (inactive)	> 100 µM (inactive)	> 100 µM (inactive)	> 100 µM	> 100 µM (inactive)	> 100 µM (inactive)	> 100 µM (inactive)	> 100 µM (inactive)	> 100 µM (inactive)	> 100 µM (inactive)	> 100 µM (inactive)	> 100 µM (inactive)	> 100 µM (inactive)		> 100 µM (inactive)	> 100 µM (inactive)	> 100 µM (inactive)		> 100 µM (inactive)	> 100 µM (inactive)
[O-][N+]1=C2CCC/C(=N/O)C2(O)C2CCCCC21N1CCOCC1 (centres undefined)	> 100 µM (inactive)		> 100 µM (inactive)	> 100 µM	> 100 µM (inactive)	> 100 µM (inactive)	> 100 µM (inactive)	> 100 µM (inactive)	> 100 µM (inactive)	> 100 µM (inactive)	> 100 µM (inactive)	> 100 µM (inactive)	> 100 µM (inactive)	> 100 µM (inactive)	> 100 µM (inactive)	> 100 µM (inactive)	> 100 µM (inactive)	> 100 µM (inactive)	> 100 µM (inactive)	
O=c1[nH]c(=O)n(C2CC(O)C(CO)O2)cc1C1=NC1 (centres undefined)		> 100 µM (inactive)	> 100 µM (inactive)	> 100 µM		> 100 µM (inactive)	> 100 µM (inactive)	> 100 µM (inactive)	> 100 µM (inactive)	> 100 µM (inactive)	> 100 µM (inactive)	> 100 µM (inactive)	> 100 µM (inactive)		> 100 µM (inactive)		> 100 µM (inactive)	81.3 µM (inactive)	> 100 µM (inactive)	> 100 µM (inactive)
O=c1cc(N2CCNCC2)nc2ccccn12	> 100 µM (inactive)	> 100 µM (inactive)	> 100 µM (inactive)	> 100 µM	> 100 µM (inactive)	> 100 µM (inactive)	> 100 µM (inactive)	> 100 µM (inactive)		> 100 µM (inactive)	> 100 µM (inactive)	> 100 µM (inactive)	> 100 µM (inactive)		> 100 µM (inactive)	> 100 µM (inactive)		> 100 µM (inactive)	> 100 µM (inactive)	> 100 µM (inactive)
